Earlier results as cited in patent US20040071803A1, “Process for preparation of anti-diabetic compositions from banyan bark” (priority 2002, published 2004).

Columns and labels:
[1] = system: alloxan induced diabetic rats; conditions: single dose of 250 mg/kg or long term 100 mg/Kg/day; mild but not severe diabetes (Cherian et. al. 1992)

Molecule | Antidiabetic effect in alloxan induced diabetic rats [1] | Effect on severely diabetic rabbits (alloxan diabetic rabbits; fasting blood glucose (FBG) of 250 mg/dl or above (Augusti 1975)) | Hypoglycemic activity relative to tolbutamide (alloxan diabetic rabbits; normal and mildly diabetic rabbits (Augusti 1975))
Leucocyanidin 3-0-β D-galactosyl cellobioside | antidiabetic effect |  | 
bengalinoside |  | did not have any effect | half as active as tolbutamide
CC1OC(Oc2cc3c(O)cc(O)cc3[o+]c2-c2ccc(O)cc2)C(O)C(O)C1O (stereo not drawn) [pelargonidin 3-0-α-rhamnoside] | antidiabetic effect |  | 
